{"source": "patent US10294290B2", "about": "“Polypeptides derived from calcitonin receptors and methods of use” (The Research Foundation For The State University of New York, priority 2010, dated 2019)", "key": {"[1]": {"system": "immortalized human fetal osteoblast cell line, hFOB 1.19", "assay": "Bone matrix formation, Alizarin Red staining, differentiated osteoblasts", "type": "cell-based", "settings": "for calcium deposits (Alizarin dye, fluorescent images): 12.5 μM", "experimental": "The effect of CRP on differentiated osteoblasts was analyzed in an immortalized human fetal osteoblast cell line, hFOB 1.19. hFOB cells were incubated for 48 hours in increasing concentrations of CRP (4.6 μM, 9.2 μM, 13.8 μM and 18.4 μM). Bone matrix formation was assayed using a Millipore Osteogenesis Quantitation kit as described above. Phase contrast and fluorescent images of the Alizarin Red stained cells were acquired using an Olympus-IMT microscope according to the manufacturer's (Millipore) specifications. […] Increased bone matrix deposition was also detectable by fluorescence microscopy. Non-amidated CRP had no effect on bone matrix formation.\nThe sequence specificity of the effect of CRP on bone matrix formation was evaluated using the scrambled peptide, {pGln}NFWQWWIQARKQ (SEQ ID NO:51), which was amidated at the C-terminus. hFOB cells were treated as described above with 18.4 μM of the scrambled peptide, and bone matrix formation was assayed with the Millipore Osteogenesis Quantitation kit as described above.\nIn cell culture, we also studied the effect of amino acid substitutions in CRP on the formation of bone matrix. hFOB cells were treated with human CRP (KRQWAQFKIQWNQR; SEQ ID NO:42) and, separately, mouse CRP (KRQWTQFKIQWSQR; SEQ ID NO:43) before staining with Alizarin dye to identify the matrix that is formed. Fluorescent images were acquired using an Olympus-IMP microsope."}, "[2]": {"system": "ovariectomized (OVX) rats", "assay": "Micro-CT of cortical bone from femoral midshafts", "type": "in vivo, Sprague Dawley rats", "settings": "15 μM (1 mL) intraperitoneal, five times per week for five weeks, vs vehicle, p<0.05 ANCOVA", "experimental": "We performed a micro-CT analysis of cortical bone from the femoral midshafts of ovariectomized (OVX) rats treated with 50% DMSO (OVX Vehicle) or 15 μM rat CRP (OVX 15 μM) Sprague Dawley rats (n=12/group) were ovariectomized at 6 months of age and allowed to lose bone for one month prior to treatment. They were then administered vehicle or 15 μM CRP (1 mL), via intraperitoneal injection, five times per week for five weeks. The animals were then sacrificed and their femora were harvested. The femora were scanned using microCT (Scanco uCT40) and 1.8 mm-long mid-diaphyseal regions of interest were analyzed."}}, "note": "[ ]: non-standard residue; d: D form. pGlu = O=C1CC[C@@H](C(=O)O)N1"}
{"substance": "KRQWAQFKIQWNQR (listed as Homo sapiens) [hCRP]", "values": [{"measurement": "calcium deposits (Alizarin dye, fluorescent images)", "setting": "[1]", "result": "produced calcium deposits"}]}
{"substance": "KRQWTQFKIQWSQR (listed as Mus sp.) [mCRP]", "values": [{"measurement": "calcium deposits (Alizarin dye, fluorescent images)", "setting": "[1]", "result": "produced calcium deposits"}]}
{"substance": "{pGln}NFWQWWIQARKQ ([pGlu]NFWQWWIQARKQ-NH2; SMILES CC[C@H](C)[C@H](NC(=O)[C@H](Cc1c[nH]c2ccccc12)NC(=O)[C@H](Cc1c[nH]c2ccccc12)NC(=O)[C@H](CCC(N)=O)NC(=O)[C@H](Cc1c[nH]c2ccccc12)NC(=O)[C@H](Cc1ccccc1)NC(=O)[C@H](CC(N)=O)NC(=O)[C@@H]1CCC(=O)N1)C(=O)N[C@@H](CCC(N)=O)C(=O)N[C@@H](C)C(=O)N[C@@H](CCCNC(=N)N)C(=O)N[C@@H](CCCCN)C(=O)N[C@@H](CCC(N)=O)C(N)=O) [scrambled peptide, scrambled control peptide, same amino acids as CRP in scrambled order, reference compound]", "values": [{"measurement": "bone matrix formation", "setting": "[1]; 18.4 μM", "result": "did not induce bone matrix formation"}]}
{"substance": "rat CRP: rat calcitonin receptor-derived polypeptide (rat homologue, SEQ ID NO:47, shown in FIG. 2) (KRQWAQFKIQWSHRWGRR; listed as Rattus norvegicus)", "values": [{"measurement": "average periosteal surface", "setting": "[2]", "result": "significantly greater"}, {"measurement": "average periosteal volume", "setting": "[2]", "result": "significantly greater"}, {"measurement": "average polar moment of inertia", "setting": "[2]", "result": "significantly greater"}, {"measurement": "maximum principal moment of inertia", "setting": "[2]", "result": "significantly greater"}, {"measurement": "minimum principal moment of inertia", "setting": "[2]", "result": "significantly greater"}]}
